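Where inhibition never reached the appropriate level, the endpoint shown equals the highest concentration tested. Otherwise, values were interpolated linearly from a five-concentration, 48-hour dose response in 96-well plates. TGI is the concentration that stops growth completely.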
Assays:
Experiment in all cases: NCI anticancer screen, dose series, 48 h
786-0 renal = test system: 786-0 renal
A498 renal = test system: A498 renal
A549 NSCLC = test system: A549 NSCLC
ACHN renal = test system: ACHN renal
BT-549 breast = test system: BT-549 breast
CAKI-1 renal = test system: CAKI-1 renal
CCRF-CEM leukemia = test system: CCRF-CEM leukemia
COLO 205 colon = test system: COLO 205 colon
DU-145 prostate = test system: DU-145 prostate
EKVX NSCLC = test system: EKVX NSCLC
HCT-116 colon = test system: HCT-116 colon
HCT-15 colon = test system: HCT-15 colon
HL-60(TB) leukemia = test system: HL-60(TB) leukemia
HOP-62 NSCLC = test system: HOP-62 NSCLC
HOP-92 NSCLC = test system: HOP-92 NSCLC
HS 578T breast = test system: HS 578T breast
IGROV1 ovarian = test system: IGROV1 ovarian
K-562 leukemia = test system: K-562 leukemia
KM12 colon = test system: KM12 colon
LOX IMVI melanoma = test system: LOX IMVI melanoma
M14 melanoma = test system: M14 melanoma
MALME-3M melanoma = test system: MALME-3M melanoma
MCF7 breast = test system: MCF7 breast
MDA-MB-231 breast = test system: MDA-MB-231 breast
MDA-MB-435 = test system: MDA-MB-435
MDA-N = test system: MDA-N
MOLT-4 leukemia = test system: MOLT-4 leukemia
NCI-H226 lung = test system: NCI-H226 lung
NCI-H23 lung = test system: NCI-H23 lung
NCI-H460 lung = test system: NCI-H460 lung
NCI-H522 lung = test system: NCI-H522 lung
NCI/ADR-RES ovarian = test system: NCI/ADR-RES ovarian
OVCAR-3 ovarian = test system: OVCAR-3 ovarian
OVCAR-4 ovarian = test system: OVCAR-4 ovarian
OVCAR-5 ovarian = test system: OVCAR-5 ovarian
OVCAR-8 ovarian = test system: OVCAR-8 ovarian
PC-3 prostate = test system: PC-3 prostate
RPMI-8226 leukemia = test system: RPMI-8226 leukemia
RXF 393 renal = test system: RXF 393 renal
SF-268 CNS = test system: SF-268 CNS
SF-295 CNS = test system: SF-295 CNS
SF-539 CNS = test system: SF-539 CNS
SK-MEL-2 melanoma = test system: SK-MEL-2 melanoma
SK-MEL-28 melanoma = test system: SK-MEL-28 melanoma
SK-MEL-5 melanoma = test system: SK-MEL-5 melanoma
SK-OV-3 ovarian = test system: SK-OV-3 ovarian
SN12C renal = test system: SN12C renal
SNB-19 CNS = test system: SNB-19 CNS
SNB-75 CNS = test system: SNB-75 CNS
SR leukemia = test system: SR leukemia
SW-620 colon = test system: SW-620 colon
T-47D breast = test system: T-47D breast
TK-10 renal = test system: TK-10 renal
U251 CNS = test system: U251 CNS
UACC-257 melanoma = test system: UACC-257 melanoma
UACC-62 melanoma = test system: UACC-62 melanoma
UO-31 renal = test system: UO-31 renal
DLD-1 colon = test system: DLD-1 colon
DMS 273 small cell lung = test system: DMS 273 small cell lung
HCC-2998 colon = test system: HCC-2998 colon
HOP-18 NSCLC = test system: HOP-18 NSCLC
HT29 colon = test system: HT29 colon
KM20L2 colon = test system: KM20L2 colon
LXFL 529 NSCLC = test system: LXFL 529 NSCLC
M19-MEL melanoma = test system: M19-MEL melanoma
SNB-78 CNS = test system: SNB-78 CNS

## O=C1/C(=C\c2ccccc2)C(NC2CCCCC2)c2ccccc21 (stereo not given)
786-0 renal
  TGI: 2.14 µM
A498 renal
  TGI: 32.7 µM
A549 NSCLC
  TGI: 16.4 µM
ACHN renal
  TGI: 2.34 µM
BT-549 breast
  TGI: 5.69 µM
CAKI-1 renal
  TGI: 2.83 µM
CCRF-CEM leukemia
  TGI: 0.294 µM
COLO 205 colon
  TGI: 3.22 µM
DU-145 prostate
  TGI: 3.09 µM
EKVX NSCLC
  TGI: 11.2 µM
HCT-116 colon
  TGI: 2.44 µM
HCT-15 colon
  TGI: 5.79 µM
HL-60(TB) leukemia
  TGI: 3.02 µM
HOP-62 NSCLC
  TGI: 7.21 µM
HOP-92 NSCLC
  TGI: 4.8 µM
HS 578T breast
  TGI: 16.3 µM
IGROV1 ovarian
  TGI: 10.4 µM
K-562 leukemia
  TGI: 5.07 µM
KM12 colon
  TGI: 15.9 µM
LOX IMVI melanoma
  TGI: 3.33 µM
M14 melanoma
  TGI: 3.18 µM
MALME-3M melanoma
  TGI: 3.01 µM
MCF7 breast
  TGI: 2.67 µM
MDA-MB-231 breast
  TGI: 5.2 µM
MDA-MB-435
  TGI: 3.18 µM
MDA-N
  TGI: 3.8 µM
MOLT-4 leukemia
  TGI: 3.02 µM
NCI-H226 lung
  TGI: 14.1 µM
NCI-H23 lung
  TGI: 2.28 µM
NCI-H460 lung
  TGI: 8.02 µM
NCI-H522 lung
  TGI: 2.05 µM
NCI/ADR-RES ovarian
  TGI: 98.5 µM
OVCAR-3 ovarian
  TGI: 2.51 µM
OVCAR-4 ovarian
  TGI: 3.93 µM
OVCAR-5 ovarian
  TGI: 10.4 µM
OVCAR-8 ovarian
  TGI: 6.09 µM
PC-3 prostate
  TGI: 3.78 µM
RPMI-8226 leukemia
  TGI: 2.42 µM
RXF 393 renal
  TGI: 2.93 µM
SF-268 CNS
  TGI: 13 µM
SF-295 CNS
  TGI: 33.5 µM
SF-539 CNS
  TGI: 4.39 µM
SK-MEL-2 melanoma
  TGI: 5.25 µM
SK-MEL-28 melanoma
  TGI: 6.06 µM
SK-MEL-5 melanoma
  TGI: 6.65 µM
SK-OV-3 ovarian
  TGI: 27 µM
SN12C renal
  TGI: 4.37 µM
SNB-19 CNS
  TGI: 22.5 µM
SNB-75 CNS
  TGI: 4.45 µM
SR leukemia
  TGI: 0.473 µM
SW-620 colon
  TGI: 2.12 µM
T-47D breast
  TGI: 4.69 µM
TK-10 renal
  TGI: 2.59 µM
U251 CNS
  TGI: 3.48 µM
UACC-257 melanoma
  TGI: 2.69 µM
UACC-62 melanoma
  TGI: 6.2 µM
UO-31 renal
  TGI: 2.31 µM

## Cc1c(O)c(O)cc[n+]1C1OC(CO)C(O)C1O (stereo not given)
786-0 renal
  TGI: > 100 µM
A498 renal
  TGI: > 100 µM
A549 NSCLC
  TGI: > 100 µM
ACHN renal
  TGI: > 100 µM
CAKI-1 renal
  TGI: > 100 µM
CCRF-CEM leukemia
  TGI: > 100 µM
COLO 205 colon
  TGI: > 100 µM
DLD-1 colon
  TGI: > 100 µM
DMS 273 small cell lung
  TGI: > 100 µM
EKVX NSCLC
  TGI: > 100 µM
HCC-2998 colon
  TGI: > 100 µM
HCT-116 colon
  TGI: > 100 µM
HCT-15 colon
  TGI: > 100 µM
HOP-18 NSCLC
  TGI: > 100 µM
HOP-92 NSCLC
  TGI: > 100 µM
HT29 colon
  TGI: > 100 µM
IGROV1 ovarian
  TGI: > 100 µM
K-562 leukemia
  TGI: > 100 µM
KM12 colon
  TGI: > 100 µM
KM20L2 colon
  TGI: > 100 µM
LOX IMVI melanoma
  TGI: > 100 µM
LXFL 529 NSCLC
  TGI: > 100 µM
M14 melanoma
  TGI: > 100 µM
M19-MEL melanoma
  TGI: > 100 µM
MALME-3M melanoma
  TGI: > 100 µM
NCI-H226 lung
  TGI: > 100 µM
NCI-H23 lung
  TGI: > 100 µM
NCI-H460 lung
  TGI: > 100 µM
NCI-H522 lung
  TGI: > 100 µM
OVCAR-4 ovarian
  TGI: > 100 µM
OVCAR-5 ovarian
  TGI: > 100 µM
OVCAR-8 ovarian
  TGI: > 100 µM
RPMI-8226 leukemia
  TGI: > 100 µM
RXF 393 renal
  TGI: > 100 µM
SF-268 CNS
  TGI: > 100 µM
SK-MEL-2 melanoma
  TGI: > 100 µM
SK-MEL-28 melanoma
  TGI: > 100 µM
SK-OV-3 ovarian
  TGI: > 100 µM
SN12C renal
  TGI: > 100 µM
SNB-19 CNS
  TGI: > 100 µM
SNB-75 CNS
  TGI: > 100 µM
SNB-78 CNS
  TGI: > 100 µM
SW-620 colon
  TGI: > 100 µM
TK-10 renal
  TGI: > 100 µM
U251 CNS
  TGI: > 100 µM
UACC-257 melanoma
  TGI: > 100 µM
UACC-62 melanoma
  TGI: > 100 µM
UO-31 renal
  TGI: > 100 µM
